Data from patent US6350596B2, “Method for producing L-phenylalanine” (Ajinomoto Co., Inc., priority 2000, dated 2002).

Assays:
[1] = test system: Methylophilus methylotrophus AS-1 (NCIB 10515; ATCC 53528); test: Sensitivity of the wild type strain to phenylalanine analogs on 121(Fe2)-agar medium; type: cell-based; settings: for amount at which the wild type strain (strain AS-1) can not grow: usually, under the conditions described in Examples
Excerpt: To be resistant to an phenylalanine analog means that the bacterium can grow in the presence of the phenylalanine analog in the amount at which the wild type strain (for example, strain AS-1) can not grow. The amount varies depending on the kinds of the phenylalanine analog.
To be resistant to L-phenylalanine means that the bacterium can grow in the presence of L-phenylalanine in the amount at which the wild type strain (for example, strain AS-1) can not grow. The amount is usually 8 g/l under the conditions described in Examples mentioned below.
To be resistant to cinnamic acid means that the bacterium can grow in the presence of cinnamic acid in the amount at which the wild type strain (for example, strain AS-1) can not grow. The amount is usually 50 mg/l under the conditions described in Examples mentioned below.
The 10^8 c.f.u./ml of M. methylotrophus bacteria were plated and grown at +30° C. for 3 days. […] The several crystals of N-methyl-N′-nitro-N-nitrosoguanidin (hereinafter abbreviated to NG) mutagen was placed in the middle of the plate. After 4-5 days at 30° C., the plates were analyzed.

[2] = test system: M. methylotrophus pFp^R mutant No. 227; test: Growth of pFp^R mutant on agarized 121-medium with L-phenylalanine; type: cell-based, Methylophilus methylotrophus; settings: added into the agarized 121-medium
[3] = test system: Methylophilus methylotrophus pFp^R phe^R mutant strain No. 227-16; type: cell-based
Excerpt: The new mutants which were resistant to 1 g/L of meta-fluorophenylalanine (hereinafter abbreviated to mFp^R) were isolated from the strain No. 227-16 after NG-mutagenesis as it was described above.

| SMILES | concentration that totally inhibited the growth of the bacteria lawn ([1]; 121(Fe2)-agar medium, 10^8 c.f.u./ml plated, +30° C., 3 days) [mg/mL] | amount at which the wild type strain (strain AS-1) can not grow [1] [g/L] | concentration that totally inhibited the growth [2] [M] | concentration to which the strain was resistant ([3]; strain No. 227-16) [M] | growth of the strain in the presence of the analog ([3]; strain No. 227-16, 1 g/l of the analog) |
| --- | --- | --- | --- | --- | --- |
| NC(Cc1ccc(F)cc1)C(=O)O (racemic) [DL-p-fluorophenylalanine] | 1 | 2 | – | – | – |
| N[C@@H](Cc1ccccc1)C(=O)O [L-phenylalanine] | – | 8 | 0.1 | 0.05 | – |
| O=C(O)C=Cc1ccccc1 [cinnamic acid] | – | 0.05 | – | – | – |
| N[C@@H](Cc1cccc(F)c1)C(=O)O [m-fluorophenylalanine] | – | 1 | – | – | only a slight growth |
